IC50 data for 19 compounds are collected here from ChEMBL document CHEMBL1134726, “SAR studies of novel 5-substituted 2-arylindoles as nonpeptidyl GnRH receptor antagonists” (Bioorg Med Chem Lett, 2001).

Each structure is given as a SMILES string. pIC50: −log10 of the molar value.

In the assay the target is T1, Gonadotropin-releasing hormone receptor (Rattus norvegicus, UniProt P30969).
T1 sequence (P30969 whole entry): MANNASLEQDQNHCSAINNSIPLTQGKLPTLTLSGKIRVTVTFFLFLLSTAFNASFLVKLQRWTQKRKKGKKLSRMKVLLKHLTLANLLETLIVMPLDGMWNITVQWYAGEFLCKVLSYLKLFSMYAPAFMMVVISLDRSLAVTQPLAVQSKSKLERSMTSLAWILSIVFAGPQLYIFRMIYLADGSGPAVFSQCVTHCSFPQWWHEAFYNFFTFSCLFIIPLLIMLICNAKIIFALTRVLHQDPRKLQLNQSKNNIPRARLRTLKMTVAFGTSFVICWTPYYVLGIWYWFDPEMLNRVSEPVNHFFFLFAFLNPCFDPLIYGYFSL
In words: Binding affinity to rat Gonadotropin-releasing hormone receptor.
In the case of `Cc1cc(C)cc(-c2[nH]c3ccc(OC(=O)N4CCN(C)CC4)cc3c2CCNCCCCc2ccc(O)cc2)c1`, the negative logarithm of the IC50 (pIC50) is 7.60.

The compound `Cc1cc(C)cc(-c2[nH]c3ccc(OC(=O)N4CCN(S(C)(=O)=O)CC4)cc3c2CCNCCCCc2ccc(O)cc2)c1` had a negative logarithm of the IC50 (pIC50) of 8.22.

With `CCCC(=O)N1CCN(C(=O)Oc2ccc3[nH]c(-c4cc(C)cc(C)c4)c(CCNCCCCc4ccc(O)cc4)c3c2)CC1`, the negative-log IC50 (pIC50) was 7.52. Compared with the last compound, the pIC50 is 0.70 log units lower.

Consider `CCOC(=O)N1CCN(C(=O)Oc2ccc3[nH]c(-c4cc(C)cc(C)c4)c(CCNCCCCc4ccc(O)cc4)c3c2)CC1`, for which the pIC50 is 7.49.

The compound `CC(=O)N1CCN(C(=O)Oc2ccc3[nH]c(-c4cc(C)cc(C)c4)c(CCNCCCCc4ccc(O)cc4)c3c2)CC1` showed a pIC50 of 7.52.

For the compound `Cc1cc(C)cc(-c2[nH]c3ccc(OCc4ccccc4)cc3c2CCNCCCCc2ccc(O)cc2)c1`, the pIC50 is 7.00. This pIC50 lies 0.52 log units lower than the previous one.

Compound `Cc1cc(C)cc(-c2[nH]c3ccc(OC(=O)N4CCN(S(=O)(=O)C(C)C)CC4)cc3c2CCNCCCCc2ccc(O)cc2)c1` gave a negative-log IC50 (pIC50) of 8.15. Against the preceding compound, the pIC50 is 1.15 log units higher.

With `Cc1cc(C)cc(-c2[nH]c3ccc(OC(=O)N4CCCCC4)cc3c2CCNCCCCc2ccc(O)cc2)c1`, the negative-log IC50 (pIC50) is 7.49.

On to `CNC(=O)Oc1ccc2[nH]c(-c3cc(C)cc(C)c3)c(CCNCCCCc3ccc(O)cc3)c2c1`, for which the negative logarithm of the IC50 (pIC50) is 7.52. This pIC50 and that of the compound before are within 0.2 log units of each other.

`CCS(=O)(=O)N1CCN(C(=O)Oc2ccc3[nH]c(-c4cc(C)cc(C)c4)c(CCNCCCCc4ccc(O)cc4)c3c2)CC1` gave a negative-log IC50 (pIC50) of 8.40.

`CCCS(=O)(=O)N1CCN(C(=O)Oc2ccc3[nH]c(-c4cc(C)cc(C)c4)c(CCNCCCCc4ccc(O)cc4)c3c2)CC1` had a pIC50 of 7.92.

Take `Cc1cc(C)cc(-c2[nH]c3ccc(OC(=O)N4CCOCC4)cc3c2CCNCCCCc2ccc(O)cc2)c1`: the negative-log IC50 (pIC50) is 7.70.

On to `COc1ccc2[nH]c(-c3cc(C)cc(C)c3)c(CCNCCCCc3ccc(O)cc3)c2c1`, for which the negative-log IC50 (pIC50) is 7.40.

For `Cc1cc(C)cc(-c2[nH]c3ccc(OC(=O)N4CCN(CC(N)=O)CC4)cc3c2CCNCCCCc2ccc(O)cc2)c1`, the pIC50 is 7.57. This pIC50 and that of the compound before are within 0.2 log units of each other.

For `CCNC(=O)Oc1ccc2[nH]c(-c3cc(C)cc(C)c3)c(CCNCCCCc3ccc(O)cc3)c2c1`, the pIC50 is 7.80.

`Cc1cc(C)cc(-c2[nH]c3ccc(OC(=O)N4CCNCC4)cc3c2CCNCCCCc2ccc(O)cc2)c1` had a negative-log IC50 (pIC50) of 7.00.

`Cc1cc(C)cc(-c2[nH]c3ccc(OC(=O)N(C)C)cc3c2CCNCCCCc2ccc(O)cc2)c1`: the pIC50 is 7.52.

The compound `CCCNC(=O)Oc1ccc2[nH]c(-c3cc(C)cc(C)c3)c(CCNCCCCc3ccc(O)cc3)c2c1` gave a negative logarithm of the IC50 (pIC50) of 7.52.

`CCC(=O)N1CCN(C(=O)Oc2ccc3[nH]c(-c4cc(C)cc(C)c4)c(CCNCCCCc4ccc(O)cc4)c3c2)CC1` had a negative logarithm of the IC50 (pIC50) of 7.82.

As usually defined, the pIC50 is the IC50 on a negative log10 scale, so that one unit is a factor of ten.
